The values that follow come from PMC5703966, “Systemic clearance and brain distribution of carbazole-based cyanine compounds as Alzheimer’s disease drug candidates” (Scientific Reports, 2017).

The nature of series [1]: Liver microsomes stability with UDPGA and alamethacin (glucuronidation). Particulars: 0.5 mg/mL microsomes protein, read-out: t 1/2 in liver microsomes with UDPGA and alamethacin. It counts as in vitro ADME. The source says:
Microsomes and hepatocytes stability procedures and their parameters (the apparent intrinsic clearance (Cl int,app), unbound apparent intrinsic clearance (Cl u, int,app), scaled intrinsic clearance (Cl int,scaled), unbound scaled intrinsic clearance (Cl u, int,scaled), and Cl hep) calculation methods were shown in supplemental information (Supplemental Methods). The metabolites identification methods including LC-MS conditions was also found in supplemental information (Supplemental Methods). Several marker compounds as quality control were assayed (Table S6).
MS/MS. Natural logarithm of peak area ratios (compound peak area normalized by IS peak area) were plotted against time and half-life calculated. […]
In vitro stability in liver microsomes and hepatocytes
Half-life (t1/2) of SLM or SLOH in liver microsomes was determined in duplicate. In phase I reaction, the compound (1 μM) was incubated with liver microsomes (0.5 mg/mL) in 100 mM sodium phosphate buffer (pH 7.4) including 81 mM Na2HPO4 and 19 mM NaH2PO4 ) at 37 °C, the reaction mixture was prewarmed at 37 °C for 2 minutes before adding NADPH (1.0 mM). In phase II reaction, the compound (1 μM) was incubated with liver microsomes (0.5 mg/mL) in 100 mM Tris-HCl buffer (pH 7.4) containing 5 mM MgCl2, 10 μg/mL alamethicin, and 2% (w/v) BSA. After pre-incubated on ice for 15 min, the reactions were initiated with the addition of UDPGA (5.0 mM). Aliquots of the reaction mixture at 0, 5, 10, 15, 30 or 45 minutes were added to 4 folds acetonitrile (ACN) containing internal standard (IS), and the samples were centrifuged at 9,659 g for 5 mins before LC-MS/MS analysis of substrate […]
disappearance. […]
Hepatocytes were suspended at 0.5 × 10^6 viable cells/mL of HT Medium and prewarmed at 37 °C for 10 minutes. Incubations were initiated with the addition of SLM and SLOH (final concentration=1 μM) and were conducted at 37 °C, 75% relative humidity, and 5% CO2. The reaction was stopped at 0, 5, 15, 30, 60, 90, 120 minutes by the addition of 4 folds ACN containing berberine chloride as internal standard

The nature of series [2]: Blood cell partitioning (blood to plasma ratio). The series is classed as in vitro ADME. The conditions noted are these: fresh whole blood, 37 °C. How it is done: The blood to plasma ratio was determined using the method shown in supplemental information (Supplemental Methods). […] The blood cell partitioning was calculated as follows. […] Plasma, liver microsomes and hepatocyte binding by RED device The stability of the compounds in plasma, liver microsomes and hepatocyte were studied to ensure the reliability of the binding data. Hepatocyte was deactivated by leaving them on a bench for 2 days and going through a freeze thaw cycle thereafter.

A short description of the next series: in vitro. The conditions noted are these: human, Caco-2.

As usually defined, the Papp A→B is how fast a substance crosses the layer from the apical side. Read a high Papp A→B as fast passage. The efflux ratio is a quotient of directional permeabilities that is used to spot active efflux.

Like-named read-outs stand apart in the source and are kept apart here.

Take `COCCOCCn1c2ccccc2c2cc(/C=C/c3cc[n+](CCO)c4ccccc34)ccc21` [SLOH, (E)-1-(2-hydroxyethyl)-4-(2-(9-(2-(2-metho-xyethoxy)-ethyl)-9H-carbazol-3-yl)vinyl) quinolin-1-ium chloride]: the half-life at 1 μM in series [1] (ICR/CD-1, mouse, pH 7.4, mice) is more than 8.33 h; in series [1] (pH 7.4, human), more than 8.33 h. Further, the blood plasma ratio at 1 h, 1 μM is approximately 0.76 in series [2] (human) and approximately 1.3 in series [2] (mouse). The Papp A→B at 1 μM in “in vitro” was 2.7 ×10⁻⁶ cm/s. Also, the efflux ratio at 1 μM in “in vitro” came to 9.
Take `COCCOCCn1c2ccccc2c2cc(/C=C/c3cc[n+](C)c4ccccc34)ccc21.[I-]` [SLM, (E)-4-(2-(9-(2-(2-methoxyethoxy)ethyl)-9H-carbazol-3-yl)-vinyl)-1-methyl-quinolin-1-iumiodide]: the half-life at 1 μM in series [1] (ICR/CD-1, mouse, pH 7.4, mice) was more than 8.33 h; in series [1] (pH 7.4, human), more than 8.33 h. Besides, the blood plasma ratio at 1 h, 1 μM in series [2] (human) is approximately 0.82; in series [2] (mouse) it was approximately 1.4. Moreover, the Papp A→B at 1 μM in the series “in vitro” was found to be 2.5 ×10⁻⁶ cm/s. In addition, the efflux ratio at 1 μM in “in vitro” was determined as 34.
